Organism: Rattus norvegicus
Test: Open TG-GATES - Regimen: Single
Format: toxicity, organism-based, Sprague-Dawley
Set-up: regimen Single, gender Male, age 6 weeks
Conditions: in vivo, po, 5 mg/kg, route gavage, dose level Low; for APTT / Bas / Eos / Fbg / Hb / Ht / Lym / MCH / MCHC / MCV / Mono / Neu / PT / Plat / RBC / Ret / WBC: tissue Blood; for LIVER: tissue Liver; for A/G / ALP / ALT / AST / BUN / CRE / Ca / Cl / DBIL / GLC / IP / K / LDH / Na / PL / RALB / TBIL / TC / TG / TP / gamma-GTP: tissue Plasma

C=C(C)[C@H]1Cc2c(ccc3c2O[C@@H]2COc4cc(OC)c(OC)cc4[C@@H]2C3=O)O1 [ROTENONE]
TERMINAL_BW (3 h): 199.1 g
APTT (3 h): 15.7 s
Bas (3 h): 0%
Eos (3 h): 1%
Fbg (3 h): 223 mg/dL
Hb (3 h): 12.6 g/dL
Ht (3 h): 38.3%
Lym (3 h): 77.2%
MCH (3 h): 21.2 pg
MCHC (3 h): 33%
MCV (3 h): 64.3 fL
Mono (3 h): 7.2%
Neu (3 h): 14.6%
PT (3 h): 12.3 s
Plat (3 h): 119.4 x10_4/uL
RBC (3 h): 595.4 x10_4/ul
Ret (3 h): 8.6%
WBC (3 h): 104.4 x10_2/uL
LIVER (3 h): 9.3 g
A/G (3 h): 2.1
ALP (3 h): 1388.6 IU/L
ALT (3 h): 39 IU/L
AST (3 h): 64.8 IU/L
BUN (3 h): 13.8 mg/dL
CRE (3 h): 0.4 mg/dL
Ca (3 h): 11.5 mg/dL
Cl (3 h): 103.8 meq/L
DBIL (3 h): 0.012 mg/dL
GLC (3 h): 189.2 mg/dL
IP (3 h): 8.4 mg/dL
K (3 h): 4.3 meq/L
LDH (3 h): 112.6 IU/L
Na (3 h): 140.6 meq/L
PL (3 h): 142.2 mg/dL
RALB (3 h): 3.7 g/dL
TBIL (3 h): 0.04 mg/dL
TC (3 h): 89.6 mg/dL
TG (3 h): 74.8 mg/dL
TP (3 h): 5.4 g/dL
gamma-GTP (3 h): 1 IU/L
TERMINAL_BW (6 h): 191.9 g
APTT (6 h): 17.5 s
Bas (6 h): 0%
Eos (6 h): 1%
Fbg (6 h): 227.6 mg/dL
Hb (6 h): 12.9 g/dL
Ht (6 h): 39.6%
Lym (6 h): 77.4%
MCH (6 h): 21 pg
MCHC (6 h): 32.8%
MCV (6 h): 64.1 fL
Mono (6 h): 4.2%
Neu (6 h): 17.8%
PT (6 h): 12.6 s
Plat (6 h): 127.8 x10_4/uL
RBC (6 h): 618.2 x10_4/ul
Ret (6 h): 8.4%
WBC (6 h): 86.8 x10_2/uL
LIVER (6 h): 8.4 g
A/G (6 h): 2.3
ALP (6 h): 1155.6 IU/L
ALT (6 h): 36.8 IU/L
AST (6 h): 67.6 IU/L
BUN (6 h): 10.6 mg/dL
CRE (6 h): 0.4 mg/dL
Ca (6 h): 11 mg/dL
Cl (6 h): 104.6 meq/L
DBIL (6 h): 0.01 mg/dL
GLC (6 h): 182.8 mg/dL
IP (6 h): 8.9 mg/dL
K (6 h): 4.3 meq/L
LDH (6 h): 86.6 IU/L
Na (6 h): 140 meq/L
PL (6 h): 133.4 mg/dL
RALB (6 h): 3.7 g/dL
TBIL (6 h): 0.046 mg/dL
TC (6 h): 82.2 mg/dL
TG (6 h): 48.6 mg/dL
TP (6 h): 5.4 g/dL
gamma-GTP (6 h): 1 IU/L
TERMINAL_BW (9 h): 190.6 g
APTT (9 h): 16.3 s
Bas (9 h): 0%
Eos (9 h): 1%
Fbg (9 h): 218.6 mg/dL
Hb (9 h): 12.9 g/dL
Ht (9 h): 39.5%
Lym (9 h): 66.8%
MCH (9 h): 21.2 pg
MCHC (9 h): 32.6%
MCV (9 h): 65.1 fL
Mono (9 h): 10.6%
Neu (9 h): 22.2%
PT (9 h): 12.3 s
Plat (9 h): 123.8 x10_4/uL
RBC (9 h): 606.2 x10_4/ul
Ret (9 h): 8.4%
WBC (9 h): 86.2 x10_2/uL
LIVER (9 h): 8.1 g
A/G (9 h): 2.4
ALP (9 h): 1273.6 IU/L
ALT (9 h): 29.2 IU/L
AST (9 h): 63 IU/L
BUN (9 h): 10.2 mg/dL
CRE (9 h): 0.3 mg/dL
Ca (9 h): 11.1 mg/dL
Cl (9 h): 104.6 meq/L
DBIL (9 h): 0.008 mg/dL
GLC (9 h): 183.4 mg/dL
IP (9 h): 10.2 mg/dL
K (9 h): 4.2 meq/L
LDH (9 h): 102.8 IU/L
Na (9 h): 139.4 meq/L
PL (9 h): 129.6 mg/dL
RALB (9 h): 3.8 g/dL
TBIL (9 h): 0.044 mg/dL
TC (9 h): 78 mg/dL
TG (9 h): 42.4 mg/dL
TP (9 h): 5.4 g/dL
gamma-GTP (9 h): 1 IU/L
TERMINAL_BW (24 h): 213.3 g
APTT (24 h): 15.6 s
Bas (24 h): 0%
Eos (24 h): 1%
Fbg (24 h): 208.6 mg/dL
Hb (24 h): 12.8 g/dL
Ht (24 h): 39%
Lym (24 h): 69%
MCH (24 h): 21.2 pg
MCHC (24 h): 32.8%
MCV (24 h): 64.7 fL
Mono (24 h): 10%
Neu (24 h): 19.8%
PT (24 h): 12 s
Plat (24 h): 123.2 x10_4/uL
RBC (24 h): 602.8 x10_4/ul
Ret (24 h): 8.5%
WBC (24 h): 98.2 x10_2/uL
LIVER (24 h): 10.5 g
A/G (24 h): 2.4
ALP (24 h): 1417.6 IU/L
ALT (24 h): 40.4 IU/L
AST (24 h): 71 IU/L
BUN (24 h): 15.6 mg/dL
CRE (24 h): 0.4 mg/dL
Ca (24 h): 11.5 mg/dL
Cl (24 h): 103.2 meq/L
DBIL (24 h): 0.014 mg/dL
GLC (24 h): 187.2 mg/dL
IP (24 h): 7.7 mg/dL
K (24 h): 4.6 meq/L
LDH (24 h): 106.6 IU/L
Na (24 h): 139.4 meq/L
PL (24 h): 158.8 mg/dL
RALB (24 h): 3.9 g/dL
TBIL (24 h): 0.034 mg/dL
TC (24 h): 86.2 mg/dL
TG (24 h): 146.8 mg/dL
TP (24 h): 5.6 g/dL
gamma-GTP (24 h): 0.6 IU/L
